Measured values taken from patent US8445246B2, “Flavin-binding glucose dehydrogenases” (Kikkoman Corporation, priority 2009, dated 2013).

Legend:
MjGDH = assay: Inhibiting effect of 1,10-phenanthroline on MjGDH; type: biochemical, Mucor javanicus NISL0111
Description: (§1) The inhibiting effect of […] on the activity of the flavin-binding GDH of the invention was examined in the following manner.

MpGDH = assay: Inhibiting effect of 1,10-phenanthroline on MpGDH; type: biochemical, Mucor prainii NISL0103
Description: as §1

[1] = test system: flavin-binding GDH of the invention; assay: Inhibiting effect of 1,10-phenanthroline; type: biochemical
Description: as §1

McGDH = assay: Inhibiting effect of 1,10-phenanthroline on McGDH; type: biochemical, Mucor circinelloides f. circinelloides NISL0117
Description: as §1

inhibiting effect ([1]; 1 mM 1,10-phenanthroline): 2-4%
inhibition rate ([1]; 5 mM 1,10-phenanthroline): about 10%
SMILES: c1cnc2c(c1)ccc1cccnc12 [1,10-phenanthroline]
GDH inhibition rate (%) (MjGDH; 1,10-phenanthroline 1 mM): 3.27%
GDH inhibition rate (%) (MjGDH; 1,10-phenanthroline 5 mM): 13.1%
GDH inhibition rate (%) (MjGDH; 1,10-phenanthroline 10 mM): 23.5%
GDH inhibition rate (%) (MjGDH; 1,10-phenanthroline 25 mM): 64.7%
GDH inhibition rate (%) (MjGDH; 1,10-phenanthroline 50 mM): 88.9%
GDH inhibition rate (%) (MpGDH; 1,10-phenanthroline 1 mM): 3.72%
GDH inhibition rate (%) (MpGDH; 1,10-phenanthroline 5 mM): 10.1%
GDH inhibition rate (%) (MpGDH; 1,10-phenanthroline 10 mM): 23.9%
GDH inhibition rate (%) (MpGDH; 1,10-phenanthroline 25 mM): 44.1%
GDH inhibition rate (%) (MpGDH; 1,10-phenanthroline 50 mM): 68.6%
GDH inhibition rate (%) (McGDH; 1,10-phenanthroline 1 mM): 1.95%
GDH inhibition rate (%) (McGDH; 1,10-phenanthroline 5 mM): 8.23%
GDH inhibition rate (%) (McGDH; 1,10-phenanthroline 10 mM): 12.8%
GDH inhibition rate (%) (McGDH; 1,10-phenanthroline 25 mM): 36.2%
GDH inhibition rate (%) (McGDH; 1,10-phenanthroline 50 mM): 68.5%
